Laboratory results reported in patent US20220249591A1, “COMPOSITION FOR THE TREATMENT OF EMOTIONAL DISORDERS” (priority 2019, published 2022).
Marks after values point to notes of the source that are not given here.

Legend:
Type in all cases: in vivo
[1] = system: 6-month-old stressed mice (UCMS); test: Open field test (anxiety behavior) in UCMS-stressed mice; settings: induced model (UCMS) mice, n = 12, after 21 days of daily oral gastric intubation (glutamine 24 mg, curcuma extract 1.2 mg, L. rhamnosus GG 0.120 mg per mouse); clomipramine 10 mg/kg intraperitoneal; 5 min session
Experimental: The solutions were administered orally by gastric intubation to mice (1 tube-feed per day).
The preparation of the solutions is performed extemporaneously and the administration is performed in the morning. During the behavioral sessions, the solutions are administered one hour before the start of the session. The gastric incubation always takes place in a different room from the one in which the behavioral test is performed.
In order to evaluate the results obtained with the solutions, one group of mice received a parenteral administration of a tricyclic antidepressant (clomipramine). The mice were divided into independent groups according to the following treatments:
For each group, the administration of the various solutions lasts 21 consecutive days (3 weeks). The behavioral tests are performed 4 weeks after induction of the model (“elevated plus maze” and “tail suspension”) and 3 weeks after the daily intubations (“open field” and “forced swim”).
The open field test is a circular arena (ø 1 m) surrounded by an opaque wall 25 cm tall placed in a room with uniform lighting of 70 lux. The mice are placed facing the wall at the periphery of the arena and can explore freely for 5 minutes. The area of the open field is practically divided into a peripheral zone (12 cm wide) and a central zone (the remaining area of the arena). The time (in seconds) spent in the central zone is automatically noted by videotracking. The more time a mouse spends in the central zone, the less anxious it is.
The anxiety behavior was evaluated by means of the open field test. The mean time spent by the mice at the center of the apparatus is measured.

[2] = system: 6-month-old stressed mice (UCMS); test: Forced swim test (Porsolt; depressive behavior) in UCMS-stressed mice
Experimental: The solutions were administered orally by gastric intubation to mice (1 tube-feed per day). The preparation of the solutions is performed extemporaneously and the administration is performed in the morning. During the behavioral sessions, the solutions are administered one hour before the start of the session. The gastric incubation always takes place in a different room from the one in which the behavioral test is performed. […] The mice were divided into independent groups according to the following treatments: For each group, the administration of the various solutions lasts 21 consecutive days (3 weeks). The behavioral tests are performed 4 weeks after induction of the model (“elevated plus maze” and “tail suspension”) and 3 weeks after the daily intubations (“open field” and “forced swim”). The forced swim test (Porsolt) is a test commonly used for evaluating depressive behavior in mice. This test is based on behavioral despair. […] An animal displaying depressive behaviour will spend more time immobile than the non-depressive control mouse. After the session, the animal is dried and placed under warm light. Three parameters for evaluating the depressive behaviour are noted: the time spent swimming, the time spent climbing and the time spent immobile for each animal and also their respective percentage.

[3] = system: intestinal microbiota of the stressed mice; test: Composition of the fecal microbiota by analysis of the 16S rRNA; settings: before vs after treatment, relative to placebo group
Experimental: The composition of the microbiota of the animals was analyzed in order to determine the influence of the formula on the bacterial composition of the fecal microbiota of the stressed mice and to compare it with the influence of the drug or of the placebo.
The animals' feces were sampled in order for a DNA extraction to be performed (Zymo Research based kits). The V3-V4 regions of the 16S rRNA gene are amplified and sequencing is performed on an ILLUMINA MiSeq system using the 2*250 bp mode. Sequence analysis is performed after correction using SPAdes ([…]) and regrouping is performed using PEAR (Zhang J. et al. Bioinformatics 2014; 30(5): 614-20). The OTUs (Operational Taxonomic Units) are identified with the Vsearch tool (Rognes T. et al. Peer J., 2016; 4: e2584), the taxonomic classification arising therefrom was performed by means of the RDP (Ribosomal Database Project) database.
The majority of the diversity studies based on 16S rDNA define the OTUs as being sets of sequences having at least 97% identity with each other. The OTUs are, in point of fact, the unit for measuring the specific richness in microbial ecology.
The statistical analyses were performed using the R program (Team RDC. R: A Language and Environment for Statistical Computing. 2012, Austria: R Foundation for Statistical Computing) and various packets (Ade4, Vegan). […]

[4] = induced model (UCMS) mice, n = 12, after 21 days of daily oral gastric intubation, clomipramine 10 mg/kg intraperitoneal, 6 min session

| Compound | Open field test Mean (seconds): time spent in the central zone [1] [s] | Forced swim test swimming time, effect in words ([2]; compared with the other groups, 21 days treatment) | Beta-diversity of the intestinal microbiota (PCoA), change of microbiotal profile, in words [3] | Forced swim test Climbing (dry) [2, 4] | Forced swim test Immobility (dry) [2, 4] | Forced swim test Swimming (dry) [2, 4] [s] |
| --- | --- | --- | --- | --- | --- | --- |
| CN(C)CCCN1c2ccccc2CCc2ccc(Cl)cc21 [Clomipramine, reference compound] | 56.8 | spending more time swimming when compared with the other groups | would stabilize the dysbiosis induced by the 4 weeks of stress relative to the placebo group |  |  |  |
| NC(=O)CC[C@H](N)C(=O)O [Glutamine] | 42.9 |  |  |  |  |  |
| Lactobacillus rhamnosus GG | 41.6 |  |  | 113.5* s | 106.8* s | 139.8 |
